What follows are compounds tested on Endogenous Huntingtin Protein (assay: Endogenous Huntingtin Protein Assay (Meso Scale Discovery ELISA-based electrochemiluminescence)). Conditions: MSD electrochemiluminescence, Table 1.
Type: cell-based
Protocol: Compounds of Formula (I) were tested using the Meso Scale Discovery (MSD) Assay provided in International Application No. PCT/US2016/066042, filed on Dec. 11, 2016 and claiming priority to United States Provisional Application U.S. 62/265,652 filed on Dec. 10, 2015, the entire contents of which are incorporated herein by reference.
The Endogenous Huntingtin Protein assay used in Example 1 was developed using the ELISA-based MSD electrochemiluminescence assay platform.
Endogenous Huntingtin Protein Assay
Meso Scale Discovery (MSD) 96-well or 384-well plates were coated overnight at 4° C. with MW1 (expanded polyglutamine) or MAB2166 monoclonal antibody (for capture) at a concentration of 1 μg/mL in PBS (30 μL per well). Plates were then washed three times with 300 μL wash buffer (0.05% Tween-20 in PBS) and blocked (100 μL blocking buffer; 5% BSA in PBS) for 4-5 hours at room temperature with rotational shaking and then washed three times with wash buffer.
Samples (25 μL) were transferred to the antibody-coated MSD plate and incubated overnight at 4° C. After removal of the lysates, the plate was washed three times with wash buffer, and 25 μL of #5656S (Cell signaling; rabbit monoclonal) secondary antibody (diluted to 0.25 μg/mL in 0.05% Tween-20 in blocking buffer) was added to each well and incubated with shaking for 1 Hour at room temperature. Following incubation with the secondary antibody, the wells were rinsed with wash buffer after which 25 μL of goat anti-rabbit SULFO TAG secondary detection antibody (required aspect of the MSD system) (diluted to 0.25 μg/mL in 0.05% Tween-20 in blocking buffer) was added to each well and incubated with shaking for 1 hour at room temperature. After rinsing three times with wash buffer, 150 μL of read buffer T with surfactant (MSD) were added to each empty well, and the plate was imaged on a SI 6000 imager (MSD) according to manufacturers' instructions provided for 96- or 384-well plates.

`Cc1cn2nc(-c3cc(F)c4nc(C5CCNCC5)ccc4c3)cc(C)c2n1` [Compound 45, 6-(2,8-dimethylimidazo[1,2-b]pyridazin-6-yl)-8-fluoro-2-(piperidin-4-yl)quinoline] and `COc1cc(-c2cc(F)c3nc(C4CCNCC4)ccc3c2)nn2cc(C)nc12` [Compound 51, 8-fluoro-6-(8-methoxy-2-methylimidazo[1,2-b]pyridazin-6-yl)-2-(piperidin-4-yl)quinoline] cannot be ordered by IC50: at most 100 nM for the first, at most 100 nM for the second.

`Cc1cn2nc(-c3cc(F)c4cc(N5CCC6(CC5)CNC6)nnc4c3)cc(C)c2n1` [Compound 219, 3-(2,7-diazaspiro[3.5]nonan-7-yl)-7-(2,8-dimethylimidazo[1,2-b]pyridazin-6-yl)-5-fluorocinnoline] and `Cc1cn2nc(-c3cc(F)c4cc(N5CCC6(CNC6)C5)nnc4c3)cc(C)c2n1` [Compound 220, 3-(2,6-diazaspiro[3.4]octan-6-yl)-7-(2,8-dimethylimidazo[1,2-b]pyridazin-6-yl)-5-fluorocinnoline] cannot be ordered by IC50: at most 100 nM for the first, 100 to 500 nM for the second.

`Cc1cn2nc(-c3cc(F)c4cc(C5CCCNC5)nnc4c3)cc(C)c2n1` (centres unmarked) [Compound 216, 7-(2,8-dimethylimidazo[1,2-b]pyridazin-6-yl)-5-fluoro-3-(piperidin-3-yl)cinnoline] and `Cc1cn2nc(-c3cc(F)c4cc(C5C[C@H](C)N[C@@H](C)C5)nnc4c3)cc(C)c2n1` (stereo partly drawn) [Compound 87, 7-(2,8-dimethylimidazo[1,2-b]pyridazin-6-yl)-3-[(2S,6S)-2,6-dimethylpiperidin-4-yl]-5-fluorocinnoline] cannot be ordered by IC50: at most 100 nM for the first, at most 100 nM for the second.

First: Cc1cc(-c2cnc3cc(C4CCNCC4)ccc3c2)cc2cn(C)nc12 [Compound 29, 3-(2,7-dimethyl-2H-indazol-5-yl)-7-(piperidin-4-yl)quinoline]
Second: Cc1cc(-c2ccc3nc(C4CCNCC4)ccc3c2)cc2cn(C)nc12 [Compound 15, 6-(2,7-dimethyl-2H-indazol-5-yl)-2-(piperidin-4-yl)quinoline]
The IC50 of the first is higher: 1000 to 3000 nM for the first, at most 100 nM for the second.

`CCN1CCC(c2cc(F)c3cc(-c4cc(C)c5nc(C)cn5n4)nnc3c2)CC1` [Compound 186, 3-(2,8-dimethylimidazo[1,2-b]pyridazin-6-yl)-7-(1-ethylpiperidin-4-yl)-5-fluorocinnoline] and `Cc1cn2nc(-c3cc4c(F)cc(C5=CCNCC5)cc4nn3)cc(C)c2n1` [Compound 167, 3-(2,8-dimethylimidazo[1,2-b]pyridazin-6-yl)-5-fluoro-7-(1,2,3,6-tetrahydropyridin-4-yl)cinnoline] cannot be ordered by IC50: at most 100 nM for the first, at most 100 nM for the second.

`CCN1CCC(c2cc3c(F)cc(-c4cc(C)c5nc(C)[nH]c5n4)cc3nn2)CC1` [Compound 132, 7-(2,7-dimethyl-3H-imidazo[4,5-b]pyridin-5-yl)-3-(1-ethylpiperidin-4-yl)-5-fluorocinnoline] and `CCN1CCC(c2cc3c(F)cc(-c4nc5cc(C)nc(C)c5s4)cc3nn2)CC1` [Compound 197, 7-(4,6-dimethyl[1,3]thiazolo[5,4-c]pyridin-2-yl)-3-(1-ethylpiperidin-4-yl)-5-fluorocinnoline] cannot be ordered by IC50: at most 100 nM for the first, at most 100 nM for the second.

`Cc1cc(-c2cc(F)c3nc(N(C)C4CCNCC4)nnc3c2)cc2cn(C)nc12` [Compound 42, 7-(2,7-dimethyl-2H-indazol-5-yl)-5-fluoro-N-methyl-N-(piperidin-4-yl)-1,2,4-benzotriazin-3-amine] and `Cc1nc(-c2cc(F)c3nc(C4CCNCC4)nnc3c2)cc2cn(C)nc12` [Compound 67, 7-(2,7-dimethyl-2H-pyrazolo[3,4-c]pyridin-5-yl)-5-fluoro-3-(piperidin-4-yl)-1,2,4-benzotriazine] fall in the same range of IC50: 100 to 500 nM for the first, 100 to 500 nM for the second.

Compared with `Cc1cc(-c2cc(F)c3nc(C4CCNCC4)ccc3c2)cc2cn(C)nc12` [Compound 20, 6-(2,7-dimethyl-2H-indazol-5-yl)-8-fluoro-2-(piperidin-4-yl)quinoline], `Cc1cc(-c2ccc3nc(C4CCNCC4)ncc3c2F)cc2cn(C)nc12` [Compound 38, 6-(2,7-dimethyl-2H-indazol-5-yl)-5-fluoro-2-(piperidin-4-yl)quinazoline] is higher in IC50: at most 100 nM for the first, 1000 to 3000 nM for the second. The first is the more potent here.

`Cc1cc(-c2cc(F)c3cc(C4C[C@@H](C)N(C)[C@@H](C)C4)nnc3c2)nc2cn(C)nc12` (stereo partly drawn) [Compound 227, 7-(2,7-dimethyl-2H-pyrazolo[4,3-b]pyridin-5-yl)-5-fluoro-3-((2S,4R,6R)-1,2,6-trimethylpiperidin-4-yl)cinnoline] and `CCN1[C@H](C)CC(c2cc3c(F)cc(-c4cc(C)c5nc(C)cn5n4)cc3nn2)C[C@H]1C` (stereo partly drawn) [Compound 125, 7-(2,8-dimethylimidazo[1,2-b]pyridazin-6-yl)-3-[(2R,6R)-1-ethyl-2,6-dimethylpiperidin-4-yl]-5-fluorocinnoline] cannot be ordered by IC50: at most 100 nM for the first, at most 100 nM for the second.

`Cc1cn2nc(-c3cc(F)c4cc(N5CCNCC5)nnc4c3)cc(C)c2n1` [Compound 80, 7-(2,8-dimethylimidazo[1,2-b]pyridazin-6-yl)-5-fluoro-3-(piperazin-1-yl)cinnoline] and `Cc1cn2nc(-c3cc(F)c4cc(N5CCC(C)(N(C)C)CC5)nnc4c3)cc(C)c2n1` [Compound 224, 1-[7-(2,8-dimethylimidazo[1,2-b]pyridazin-6-yl)-5-fluorocinnolin-3-yl]-N,N,4-trimethylpiperidin-4-amine] cannot be ordered by IC50: at most 100 nM for the first, at most 100 nM for the second.

`Cc1cn2cc(-c3cc(F)c4cc(C5CCNCC5)nnc4c3)nc2c(C)n1` [Compound 116, 7-(6,8-dimethylimidazo[1,2-a]pyrazin-2-yl)-5-fluoro-3-(piperidin-4-yl)cinnoline] and `Cc1cn2nc(-c3cc(F)c4cc(C5CCNCC5)nnc4c3)ccc2n1` [Compound 99, 5-fluoro-7-(2-methylimidazo[1,2-b]pyridazin-6-yl)-3-(piperidin-4-yl)cinnoline] cannot be ordered by IC50: 100 to 500 nM for the first, at most 100 nM for the second.

`CCN1CCC(c2cc3c(F)cc(-c4nc5c(C)nc(C)cc5o4)cc3nn2)CC1` [Compound 136, 7-(4,6-dimethyl[1,3]oxazolo[4,5-c]pyridin-2-yl)-3-(1-ethylpiperidin-4-yl)-5-fluorocinnoline] and `Cc1cc2oc(-c3cc(F)c4cc(C5CCN(C)CC5)nnc4c3)nc2c(C)n1` [Compound 214, 7-(4,6-dimethyl[1,3]oxazolo[4,5-c]pyridin-2-yl)-5-fluoro-3-(1-methylpiperidin-4-yl)cinnoline] cannot be ordered by IC50: at most 100 nM for the first, 100 to 500 nM for the second.

`Cc1cc(-c2cc(F)c3nc(C4CCNCC4)nnc3c2)nc2cn(C)nc12` [Compound 66, 7-(2,7-dimethyl-2H-pyrazolo[4,3-b]pyridin-5-yl)-5-fluoro-3-(piperidin-4-yl)-1,2,4-benzotriazine] and `Cc1cn2nc(-c3cc(F)c4nc(C5CCNCC5)ncc4c3)cc(C)c2n1` [Compound 37, 6-(2,8-dimethylimidazo[1,2-b]pyridazin-6-yl)-8-fluoro-2-(piperidin-4-yl)quinazoline] cannot be ordered by IC50: at most 100 nM for the first, at most 100 nM for the second.

`Cc1cn2nc(-c3cc(F)c4cc(C5CCNCC5)nnc4c3)cc(Oc3ccccc3)c2n1` [Compound 195, 5-fluoro-7-(2-methyl-8-phenoxyimidazo[1,2-b]pyridazin-6-yl)-3-(piperidin-4-yl)cinnoline] and `Cc1cn2nc(-c3cc(F)c4cc(C5CCN(CCn6cnc7ccccc76)CC5)nnc4c3)cc(C)c2n1` [Compound 159, 3-{1-[2-(1H-benzimidazol-1-yl)ethyl]piperidin-4-yl}-7-(2,8-dimethylimidazo[1,2-b]pyridazin-6-yl)-5-fluorocinnoline] cannot be ordered by IC50: at most 100 nM for the first, at most 100 nM for the second.

First: Cn1cc2cc(-c3ccc4nc(C5CCNCC5)ccc4c3)ccc2n1 [Compound 3, 6-(2-methyl-2H-indazol-5-yl)-2-(piperidin-4-yl)quinolone]
Second: CN1CCC(c2ccc3cc(-c4ccc5nn(C)cc5c4)ccc3n2)CC1 [Compound 6, 6-(2-methyl-2H-indazo1-5-yl)-2-(1-methylpiperidin-4-yl)quinoline]
The IC50 of the first is lower: 100 to 500 nM for the first, 500 to 1000 nM for the second.

`COc1cc(-c2nnc3cc(C4CCNCC4)ccc3n2)cc2cn(C)nc12` [Compound 52, 3-(7-methoxy-2-methyl-2H-indazol-5-yl)-7-(piperidin-4-yl)-1,2,4-benzotriazine] and `Cc1cn2cc(-c3nnc4cc(C5CCNCC5)ccc4n3)cc(C)c2n1` [Compound 27, 3-(2,8-dimethylimidazo[1,2-a]pyridin-6-yl)-7-(piperidin-4-yl)-1,2,4-benzotriazine] cannot be ordered by IC50: at most 100 nM for the first, 100 to 500 nM for the second.

First: CCN1CCC(c2cc3c(F)cc(-c4cc(C)c5nc(C)sc5c4)cc3nn2)CC1 [Compound 120, 7-(2,4-dimethyl-1,3-benzothiazol-6-yl)-3-(1-ethylpiperidin-4-yl)-5-fluorocinnoline]
Second: Cc1cc2oc(-c3cc(F)c4cc(C5CCNCC5)nnc4c3)nc2c(C)n1 [Compound 137, 7-(4,6-dimethyl[1,3]oxazolo[4,5-c]pyridin-2-yl)-5-fluoro-3-(piperidin-4-yl)cinnoline]
The IC50 of the first is higher: 1000 to 3000 nM for the first, at most 100 nM for the second. The second is the more potent here.

`Cc1cn2nc(-c3cc(F)c4cc(C5CCN(CCCn6cnc7ccccc76)CC5)nnc4c3)cc(C)c2n1` [Compound 145, 3-{1-[3-(1H-benzimidazol-1-yl)propyl]piperidin-4-yl}-7-(2,8-dimethylimidazo[1,2-b]pyridazin-6-yl)-5-fluorocinnoline] gave an IC50 of at most 100 nM.
